Values joined by “and” are separate entries in the source; they are usually repeats but may differ in a detail not shown here. Equal entries are not always repeated. Where two headings read alike, the source gives them in different places.
Tests used:
[1] = target: T1, RPSA-(2–295) (Mus musculus, UniProt P14206); assay: Fluorimetric titration of RPSA derivative with EGCG; type: binding, murine
[2] = target: T2, RPSA-(2–220) (Mus musculus, UniProt P14206); assay: as above; type: binding, murine; details: read-out: KD(EGCG); 25°C, PBS, equilibrium in solution, spectrofluorimetry
[3] = target: T3, RPSA-(2–209) (Mus musculus, UniProt P14206); assay: as above; type: binding, murine
[4] = target: T4, RPSA-(210–295) (Mus musculus, UniProt P14206); assay: as above; type: binding, murine; details: 25°C
[5] = target: T5, RPSA-(225–295) (Mus musculus, UniProt P14206); assay: as above; type: binding, murine; details: 25°C
[6] = target: RPSA-(2–209) W176A (Mus musculus, UniProt P14206, W176A); assay: Fluorimetric titration of mutant RPSA-; type: binding, murine
[7] = target: RPSA-(2–209) W195A (Mus musculus, UniProt P14206, W195A); assay: Fluorimetric titration of mutant RPSA-; type: binding, murine
[8] = target: N-domain of RPSA (Mus musculus, UniProt P14206); assay: Summary of ligand binding functions of RPSA domains; parameters: species or system murine; details: read-out: KD (dissociation constants), N-domain; rounded value of the Abstract
[9] = test system: 67LR form of RPSA, purified from human cancer cells; details: 25°C, surface plasmon resonance; cited from earlier work
[10] = target: T1, RPSA-(2–295); assay: Indirect ELISA, capture of heparin by immobilized RPSA derivative; type: binding, murine; details: 25°C
[11] = target: T2, RPSA-(2–220); assay: as above; type: binding, murine; details: 25°C, half-saturation, listed as Heparin
[12] = target: T3, RPSA-(2–209); assay: as above; type: binding, murine; details: 25°C, half-saturation
[13] = target: T4, RPSA-(210–295); assay: as above; type: binding, murine; details: 25°C
[14] = target: T5, RPSA-(225–295); assay: as above; type: binding, murine; details: 25°C
[15] = target: capture of laminin by immobilized RPSA-(2–220) (Mus musculus, UniProt P14206); type: binding, murine; details: EC50 smaller than K1/2
[16] = target: interaction between RPSA-(225–295) and laminin (Mus musculus, UniProt P02468+P02469+P19137); assay: Competition ELISA, inhibition constant Ki of heparin; type: binding, murine; details: read-out: constant of inhibition (Ki); 25°C, buffer C, laminin 5 μg/ml, immobilized RPSA-(225–295)
[17] = target: T1, RPSA-(2–295); assay: Competition ELISA, KD between laminin and RPSA derivative; type: binding, murine
[18] = target: T2, RPSA-(2–220); assay: as above; type: binding, murine; details: read-out: KD(Laminin), 25°C, buffer C, equilibrium in solution
[19] = target: T3, RPSA-(2–209); assay: as above; type: binding, murine; details: read-out: KD(Laminin), 25°C, buffer C, equilibrium in solution
[20] = target: T4, RPSA-(210–295); assay: as above; type: binding, murine; details: read-out: KD(Laminin), 25°C, buffer C, equilibrium in solution
[21] = target: T5, RPSA-(225–295); assay: as above; type: binding, murine; details: read-out: KD(Laminin), 25°C, buffer C, equilibrium in solution
[22] = target: C-domain of RPSA (Mus musculus, UniProt P14206); assay: Summary of ligand binding functions of RPSA domains; parameters: species or system murine; details: read-out: KD (dissociation constants), C-domain; rounded value of the Abstract
[23] = target: 67LR; details: cell membrane, denatured, SPRadio-L, cited from earlier work
[24] = target: RPSA 1–220; details: 1–220, E. coli, native, Ind. ELISA, 37 °C; cited from earlier work
[25] = target: RPSA 1–295; details: 1–295, E. coli, native, Ind. ELISA, 37 °C; cited from earlier work
[26] = target: RPSA 161–180 (synthetic peptide G); details: SPRadio-L, 4 °C; cited from earlier work
[27] = read-out: KD(EGCG), 25°C, PBS, equilibrium in solution, spectrofluorimetry
[28] = uncorrected fluorescence, consistent with tryptophanamide control

Molecule: O=C(O[C@@H]1Cc2c(O)cc(O)cc2O[C@@H]1c1cc(O)c(O)c(O)c1)c1cc(O)c(O)c(O)c1 [EGCG, (−)-epigallocatechin-3-gallate]
- KD of EGCG, full-length RPSA-(2–295) relative to N-domain ([1]; higher for full-length): 4 fold
- Kd [1, 27]: 399 ± 101 nM
- Kd [2]: 130 ± 37 nM
- KD of EGCG with RPSA-(2–209) relative to literature KD with 67LR ([3]; higher than 39.9 nM of ref 46): 2.5 fold
- Kd [3, 27]: 99 ± 7 nM
- EGCG binding (in words) ([4]; spectrofluorimetry): did not bind
- [EGCG]1/2 (concentration of half-absorption, Beer's law fitted to F) [4, 28]: 48 µM
- EGCG binding (in words) ([5]; spectrofluorimetry): did not bind
- [EGCG]1/2 (concentration of half-absorption, Beer's law fitted to F) [5, 28]: 43 µM
- decrease of free energy of interaction (ΔΔG) with EGCG ([6]; W176A vs parental RPSA-(2–209)): 0.4 ± 0.1 kcal/mol
- Kd ([6]; read-out: KD (EGCG), 25°C, W176A mutant of RPSA-(2–209)): 186 ± 42 nM
- decrease of free energy of interaction (ΔΔG) with EGCG ([7]; W195A vs parental RPSA-(2–209)): 0.4 ± 0.1 kcal/mol
- Kd ([7]; read-out: KD (EGCG), 25°C, W195A mutant of RPSA-(2–209)): 196 ± 54 nM
- Kd [8]: 100 nM
- KD (EGCG and 67LR), ratio kd/ka [9]: 39.9 nM

Molecule: heparin sodium salt
- heparin binding (in words) [10]: did not bind
- K1/2(Heparin) ([10]; half-saturation): ≫4 μM
- K1/2(Heparin) [11]: 4.4 µM and 4.36 ± 0.28 µM
- K1/2(Heparin) [12]: 1.43 µM
- K1/2(Heparin) ([12]; listed as Heparin): 1.43 ± 0.06 µM
- heparin binding (in words) [13]: did not bind
- K1/2(Heparin) ([13]; half-saturation): ≫2 μM
- heparin binding (in words) [14]: did not bind
- K1/2(Heparin) ([14]; half-saturation): ≫2 μM
- EC50 relative to K1/2 of heparin for RPSA-(2–220) [15]: 130 fold
- Ki [16]: 16.1 ± 0.7 nM

Molecule: laminin: laminin from mouse EHS (Engelbreth-Holm-Swarm) sarcoma, component of the extracellular matrix
- KD of laminin, full-length RPSA-(2–295) relative to N- or C-domain ([17]; higher for full-length): 2 fold
- Kd ([17]; read-out: KD(Laminin), 25°C, buffer C, equilibrium in solution, competition ELISA): 666 ± 33 nM
- Kd [18]: 691 ± 98 nM
- Kd [19]: 273 ± 37 nM
- Kd [20]: 374 ± 54 nM
- Kd [21]: 344 ± 50 nM
- Kd [8]: 300 nM
- Kd [22]: 300 nM
- Kd ([23]; 4 °C): 2 nM
- Kd ([23]; 20 °C): 2 nM
- Kd [24]: 1700 nM
- Kd [25]: 700 nM
- Kd [26]: 52 nM
